Assay results published in patent publication US20010053350A1, “Cosmetic composition comprising N-ethyloxycarbonyl-4-amino-phenol and arbutin or its derivatives and/or ellagic acid or its derivatives” (L'OREAL, priority 1999, published 2001).
Converted amounts (≈) assume the structure as drawn.

Key:
fungal tyrosinase = assay: Inhibition of the activity of fungal tyrosinase in vitro (absorbance at 475 nm, L-tyrosine/L-dopa); assay type: biochemical; settings: for molar concentration at which an inhibition figure of 25% was observed: fungal tyrosinase, phosphate buffer, solvent ethanol (C1), water (C2)
Procedure: This test consisted in measuring the absorbance (optical density OD) at 475 nm, as a function of time, for each of the following active depigmenting principles:
N-ethyloxycarbonyl-4-para-aminophenol arbutin in solution (at different concentrations) in an appropriate solvent in the presence of a phosphate buffer, 1 ml of L-tyrosine at 2.0×10^−3 M in a phosphate buffer, 0.1 ml of L-dopa at 1.0×10^−4 M in a phosphate buffer and 50 μl of 1 g/l fungal tyrosinase solution in a phosphate buffer, compared with a control consisting of the solvent used, at the same concentration in the phosphate buffer. Percentage inhibition was subsequently determined by the following equation: [formula]
Subsequently, N-ethyloxycarbonyl-4-para-aminophenol and arbutin were mixed in concentrations C1 and C2 and N-ethyloxycarbonyl-4-para-aminophenol and ellagic acid were mixed in respective concentrations C1 and C3.

[1] = Upper solubility limit in the test solvent (DMSO); assay type: physicochemical; settings: organic solvent or mixture

CC(C)CCC[C@@H](C)[C@H]1CC[C@H]2[C@@H]3CC=C4C[C@@H](OC(=O)Nc5ccc(O)cc5)CC[C@]4(C)[C@H]3CC[C@]12C [N-cholesteryloxycarbonyl-4-para-aminophenol]
molar concentration at which an inhibition figure of 25% was observed (fungal tyrosinase): 66.7 µM

O=c1oc2c(O)c(O)cc3c(=O)oc4c(O)c(O)cc1c4c23 [ellagic acid]
solubility [1]: 135 µM (≈ 40.8 µg/mL) | inhibitory effect on tyrosinase activity (fungal tyrosinase; at concentration C3=1.35×10^−4 M (solubility limit in DMSO)): no inhibitory effect

arbutin
molar concentration at which an inhibition figure of 25% was observed (fungal tyrosinase): 333 µM

CCOC(=O)Nc1ccc(O)cc1 [N-ethyloxycarbonyl-4-para-aminophenol]
molar concentration at which an inhibition figure of 25% was observed (fungal tyrosinase): 125 µM

Oc1ccc(O)cc1 [hydroquinone]
molar concentration at which an inhibition figure of 25% was observed (fungal tyrosinase): 80 µM
